Measured values published in patent publication US8337903B2, “Antitumoral agents with a benzophenanthridine structure and formulations containing them” (Indena S.p.A., priority 2008, dated 2012).

What was measured:
melanoma stem cells = assay: in vitro inhibiting activity towards melanoma stem cells; type: cell-based; details: concentration of 200 ng/ml
Excerpt: (§1) Its behaviour towards other oncological stem cells is identical. These alkaloids can consequently be considered new-generation antitumoral agents, which are able to treat human tumors effectively. For tumors of the colon, liver, pancreas and cervix the most appropriate form is the salt with luteic acid dispersed in a suitable vehicle, whereas for the treatment of skin tumors such as melanoma, the salt with a phosphatidic acid can advantageously be administered topically directly to the area affected by the tumor.

colon stem cells = assay: in vitro inhibiting activity towards colon stem cells; type: cell-based; details: concentration of 200 ng/ml
Excerpt: as §1

[1] = test system: oropharynx, head and neck tumors, melanoma and cervical tumors; assay: treatment of oropharynx, head and neck tumors, melanoma and cervical tumors; type: in vivo; details: oral and topical administration; compared with the unsalified alkaloid
Excerpt: The product most suitable for oral and topical administration is the salt of sanguinarine with luteic acid.

Substance: luteic acid sanguinarine salt [salt of sanguinarine with luteic acid]
- inhibiting activity towards melanoma stem cells (melanoma stem cells): potent inhibiting activity
- inhibiting activity towards colon stem cells (colon stem cells): potent inhibiting activity
- effectiveness in the treatment of tumors [1]: particularly effective
